Data reported in US8575178B2, “Isothiazolo-pyrimidinedione derivatives as TRPA1 modulators” (Glenmark Pharmaceuticals S.A., priority 2009, dated 2013).

Tests used:
[1] = biological target: T1, rat TRPA1 (Rattus norvegicus, UniProt Q6RI86); test: 45Calcium uptake assay, inhibition of AITC induced calcium uptake in rat TRPA1 expressing CHO cells; type: cell-based; conditions: AITC 10 μM; for inhibition at 1 µM: 1.0 μM compound, read-out: rat TRPA1 Percentage inhibition at 1.0 μM; for inhibition at 10 µM: 10.0 μM compound, read-out: rat TRPA1 Percentage inhibition at 10.0 μM
T1 construct: expressed in transfected cells; host or cells: CHO cells (Zeocin selection)
T1 sequence (Q6RI86 whole entry): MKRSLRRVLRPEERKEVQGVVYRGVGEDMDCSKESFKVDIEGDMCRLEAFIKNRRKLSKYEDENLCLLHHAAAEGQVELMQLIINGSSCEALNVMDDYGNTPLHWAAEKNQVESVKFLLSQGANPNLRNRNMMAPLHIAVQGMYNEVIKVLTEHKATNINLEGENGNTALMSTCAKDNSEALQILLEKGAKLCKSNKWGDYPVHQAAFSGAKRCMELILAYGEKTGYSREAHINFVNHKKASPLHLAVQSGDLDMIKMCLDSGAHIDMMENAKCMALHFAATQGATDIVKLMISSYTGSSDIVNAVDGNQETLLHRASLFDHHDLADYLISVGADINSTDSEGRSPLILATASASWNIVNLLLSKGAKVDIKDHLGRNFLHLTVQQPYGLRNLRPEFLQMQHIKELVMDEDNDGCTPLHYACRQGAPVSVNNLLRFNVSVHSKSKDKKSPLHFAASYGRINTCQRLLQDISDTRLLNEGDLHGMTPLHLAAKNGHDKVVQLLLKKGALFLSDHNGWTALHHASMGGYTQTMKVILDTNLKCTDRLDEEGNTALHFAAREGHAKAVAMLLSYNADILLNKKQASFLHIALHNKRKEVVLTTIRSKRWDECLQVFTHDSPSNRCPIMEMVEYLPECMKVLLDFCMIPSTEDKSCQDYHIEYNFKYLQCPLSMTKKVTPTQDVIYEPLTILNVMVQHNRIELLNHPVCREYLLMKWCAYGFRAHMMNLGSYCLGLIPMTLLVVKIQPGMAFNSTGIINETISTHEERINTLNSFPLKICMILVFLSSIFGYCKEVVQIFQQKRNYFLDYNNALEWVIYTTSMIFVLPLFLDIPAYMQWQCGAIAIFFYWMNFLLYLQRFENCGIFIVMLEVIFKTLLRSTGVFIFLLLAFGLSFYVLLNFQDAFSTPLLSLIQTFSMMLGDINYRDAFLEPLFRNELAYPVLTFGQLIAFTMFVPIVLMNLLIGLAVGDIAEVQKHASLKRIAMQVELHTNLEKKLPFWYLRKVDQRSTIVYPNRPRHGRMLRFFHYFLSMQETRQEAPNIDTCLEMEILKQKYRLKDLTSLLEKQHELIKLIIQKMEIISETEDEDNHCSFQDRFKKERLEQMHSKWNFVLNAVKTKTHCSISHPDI
Source text: (§1) The illustrative examples of the present invention are screened for TRPA1 activity according to a modified procedure described in (a) Tóth, A. et al. Life Sciences, 2003, 73, 487-498. (b) McNamara C, R. et al, Proc. Natl. Acad. Sci. U.S.A., 2007, 104, 13525-13530. The screening of the compounds can be carried out by other methods and procedures known to persons skilled in the art.
(§2) Screening for TRPA1 Antagonist Using the ^45Calcium Uptake Assay:
(§3) The inhibition of TRPA1 receptor activation was measured as inhibition of allyl isothiocyanate (AITC) induced cellular uptake of radioactive calcium.
(§4) Test compounds were dissolved in 100% DMSO to prepare 10 mM stock and then diluted using plain medium with 0.1% BSA and 1.8 mM CaCl2 to get the desired concentration. The final concentration of DMSO in the reaction was 0.5% (v/v). Human TRPA1 expressing CHO cells were grown in F-12 DMEM medium with 10% FBS, 1% penicillin-streptomycin solution, and 400 μg/ml of G-418. Rat TRPA1 expressing CHO cells were grown in F-12 DMEM medium with 10% FBS, 1% penicillin-streptomycin solution, and 400 μg/ml of Zeocin. Cells were seeded 24 h prior to the assay in 96 well plates so as to get ˜50,000 cells per well on the day of experiment. Cells were treated with the test compounds for 10 minutes followed by the addition of AITC at a final concentration of 30 μM (for human TRPA1) and/or 10 μM (for rat TRPA1) and 5 μCi/ml ^45Ca^+2 for 3 minutes. Cells were washed and lysed using a buffer containing 1% Triton X-100, 0.1% deoxycholate and 0.1% SDS. Radioactivity in the lysate was measured in a Packard TopCount after addition of liquid scintillant. (Toth et al, Life Sciences (2003) 73, 487-498; McNamara C R et al, Proceedings of the National Academy of Sciences, (2007) 104, 13525-13530).
(§5) Concentration response curves were plotted as a % of maximal response obtained in the absence of test antagonist. IC50 values can be calculated from concentration response curve by nonlinear regression analysis using GraphPad PRISM software.

[2] = biological target: T2, human TRPA1 (Homo sapiens, UniProt O75762); test: 45Calcium uptake assay, inhibition of AITC induced calcium uptake in human TRPA1 expressing CHO cells; type: cell-based; conditions: AITC 30 μM; for inhibition at 1 µM: 1.0 μM compound, read-out: human TRPA1 Percentage inhibition at 1.0 μM; for inhibition at 10 µM: 10.0 μM compound, read-out: human TRPA1 Percentage inhibition at 10.0 μM
T2 construct: expressed in transfected cells; host or cells: CHO cells (G-418 selection)
T2 sequence (O75762 whole entry): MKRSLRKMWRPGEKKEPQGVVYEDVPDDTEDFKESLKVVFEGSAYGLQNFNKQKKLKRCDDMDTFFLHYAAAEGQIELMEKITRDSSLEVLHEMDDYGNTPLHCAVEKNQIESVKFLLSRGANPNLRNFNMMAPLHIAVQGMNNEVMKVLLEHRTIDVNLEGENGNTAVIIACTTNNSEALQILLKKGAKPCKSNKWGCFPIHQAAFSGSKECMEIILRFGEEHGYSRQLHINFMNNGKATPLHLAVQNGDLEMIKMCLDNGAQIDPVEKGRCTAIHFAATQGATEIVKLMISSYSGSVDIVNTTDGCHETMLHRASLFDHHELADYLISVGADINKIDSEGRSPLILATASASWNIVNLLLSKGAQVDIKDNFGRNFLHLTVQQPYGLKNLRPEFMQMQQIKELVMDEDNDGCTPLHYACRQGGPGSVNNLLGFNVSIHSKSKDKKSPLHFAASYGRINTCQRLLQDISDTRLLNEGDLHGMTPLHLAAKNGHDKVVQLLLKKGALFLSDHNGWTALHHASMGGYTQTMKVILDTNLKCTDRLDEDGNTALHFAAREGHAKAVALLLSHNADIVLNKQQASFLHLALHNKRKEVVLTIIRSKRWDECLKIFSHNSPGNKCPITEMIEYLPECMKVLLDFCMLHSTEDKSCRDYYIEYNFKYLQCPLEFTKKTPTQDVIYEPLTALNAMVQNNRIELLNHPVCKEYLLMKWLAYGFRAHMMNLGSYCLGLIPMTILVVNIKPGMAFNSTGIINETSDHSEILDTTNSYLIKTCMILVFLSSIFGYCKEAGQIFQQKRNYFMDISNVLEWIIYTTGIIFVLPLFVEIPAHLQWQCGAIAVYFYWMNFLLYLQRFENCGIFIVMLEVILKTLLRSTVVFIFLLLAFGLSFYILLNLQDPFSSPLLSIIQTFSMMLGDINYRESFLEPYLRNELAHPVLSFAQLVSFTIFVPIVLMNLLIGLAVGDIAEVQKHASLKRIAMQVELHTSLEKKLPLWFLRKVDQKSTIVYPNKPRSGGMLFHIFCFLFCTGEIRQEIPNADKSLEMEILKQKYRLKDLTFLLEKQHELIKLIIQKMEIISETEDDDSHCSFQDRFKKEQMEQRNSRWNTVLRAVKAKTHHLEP
Source text: as §1, §2, §3, §4, §5

`Cn1c(=O)c2c(CC(=O)Nc3nc(-c4ccc(Cl)c(C(F)(F)F)c4)cs3)snc2n(C)c1=O` [Example 6, 2-(5,7-Dimethyl-4,6-dioxo-4,5,6,7-tetrahydro[1,2]thiazolo[3,4-c]pyrimidin-3-yl)-N-{4-[4-chloro-3-(trifluoromethyl)phenyl]-1,3-thiazol-2-yl}acetamide] showed an inhibition at 1 µM [1] of 97.3%, an inhibition at 10 µM [1] of 99.3% and an IC50 [1] of over 100 nM. For the same compound, the inhibition at 1 µM [2] was 99.3%, the inhibition at 10 µM [2] was 99.6% and the IC50 [2] was under 50 nM.
`Cn1c(=O)c2c(CC(=O)Nc3nc(-c4ccc(Cl)cc4)cs3)snc2n(C)c1=O` [Example 2, N-[4-(4-Chlorophenyl)-1,3-thiazol-2-yl]-2-(5,7-dimethyl-4,6-dioxo-4,5,6,7-tetrahydro[1,2]thiazolo[3,4-d]pyrimidin-3-yl)acetamide] gave an inhibition at 1 µM [1] of 34.9%, an inhibition at 10 µM [1] of 43.8% and an inhibition at 1 µM [2] of 99.7%. The inhibition at 10 µM [2] was 100% and the IC50 [2] was under 50 nM.
`Cn1c(=O)c2c(CC(=O)Nc3nc(-c4ccc(Cl)cc4)cs3)nsc2n(C)c1=O` [Example 12, N-[4-(4-Chlorophenyl)-1,3-thiazol-2-yl]-2-(5,7-dimethyl-4,6-dioxo-4,5,6,7-tetrahydro[1,2]thiazolo[5,4-d]pyrimidin-3-yl)acetamide] was tested, and the inhibition at 1 µM [1] was 94.6%, the inhibition at 10 µM [1] was 99.5% and the IC50 [1] was over 100 nM. The inhibition at 1 µM [2] was 98.4%, the inhibition at 10 µM [2] was 99.2% and the IC50 [2] was under 50 nM.
With `Cn1c(=O)c2c(CC(=O)Nc3nc(-c4cc(F)c(C(F)(F)F)c(F)c4)cs3)snc2n(C)c1=O` [Example 10, N-{4-[3,5-Difluoro-4-(trifluoromethyl)phenyl]-1,3-thiazol-2-yl}-2-(5,7-dimethyl-4,6-dioxo-4,5,6,7-tetrahydro[1,2]thiazolo[3,4-d]pyrimidin-3-yl)acetamide] the inhibition at 1 µM [1] was 35.2%, the inhibition at 10 µM [1] was 68.4% and the inhibition at 1 µM [2] was 99.9%. It also gave an inhibition at 10 µM [2] of 100%.
With `Cn1c(=O)c2c(CC(=O)Nc3nc(-c4ccc(F)c(F)c4)cs3)nsc2n(C)c1=O` [Example 27, N-[4-(3,4-Difluorophenyl)-1,3-thiazol-2-yl]-2-(5,7-dimethyl-4,6-dioxo-4,5,6,7-tetrahydro[1,2]thiazolo[5,4-d]pyrimidin-3-yl)acetamide] the inhibition at 1 µM [1] was 81.8%, the inhibition at 10 µM [1] was 99.6% and the IC50 [1] was over 100 nM. The inhibition at 1 µM [2] was 97.8%, the inhibition at 10 µM [2] was 99.8% and the IC50 [2] was under 50 nM.
